Experiments:
Type in all cases: cell-based
NLRP3 inflammasome = NLRP3 inflammasome (Homo sapiens, UniProt Q96P20); experiment: Inhibition of IL-1β production in LPS + ATP stimulated (canonical) human whole blood; design: host or cells: fresh heparinised human whole blood from healthy volunteers; conditions: read-out: Geo Av IC50, IL-1β
Procedure: (§1) Inflammasome activation and whole blood assays were essentially carried out as described earlier. Details can be found in the supplementary information section accompanying this publication. A protocol for blood draws from healthy volunteers and use of the blood in preclinical assays was approved by Western Institutional Review Board, Inc (Puyallup, WA, USA). Informed consent was obtained from each donor prior to the first blood draw.
Cell viability was determined by addition of an equal volume of CellTiter-Glo® 2.0 reagent (Promega) to the remaining cells/supernatant in each well. Intracellular Caspase-1 activity was measured using the Caspase-Glo® assay (Promega) according to the manufacturer’s instructions. The biochemical capsase-1 assay was conducted at Reaction Biology Corporation (Malvern, USA). Human IL-1β, IL-1α, and TNFα and mouse IL-1β were measured in cell culture supernatants using homogeneous time resolved fluorescence assay kits (HTRF, Cisbio, Codolet, France). Human IL-18 was measured in cell culture supernatants using an ELISA kit (R&D Systems, Minneapolis, MN, USA). Plasma IL-1β concentrations were determined by Quantikine® ELISA (R&D Systems, Minneapolis, MN). […]
flagellin, prepared in Opt iMEM and combined with Lipofectamine 2000. […]

TNFα production = TNFα production in mouse BMDMs stimulated by LPS + nigericin; conditions: Mouse BMDM, read-out: Geo Av IC50, TNFα
Excerpt: as §1
4H). MS: m/z 433.1 (M+H+).
Inflammasome activation.PBMCs (iXCells Biotechnologies, San Diego, USA) were thawed the day before the assay and seeded in complete medium (RPMI 1640 medium with GlutaMAX, supplemented with an additional 2.5 g/L D-glucose, 10% Fet al Bovine Serum, 100 mM Sodium Pyruvate, 1% Penicillin/Streptomycin, 10 mM HEPES and 0.05 mM β -mercaptoethanol) in polystyrene V-bottom 96-well plates at 5x10^4 cells per well and incubated overnight at 37°C with 5% CO 2. […]
flagellin, prepared in Opt iMEM and combined with Lipofectamine 2000. […] After priming Nlrp3 -/- mBMDMs with 100 ng/mL of LPS for 3- 5 h, cells were exposed to 100 ng/mL L18- MDP and incubated overnight.At the end of the incubation period of the assays above, plates were briefly centri fuged and hal f of the cell culture supern atant remo ved and either analysed i mmediately or stored at - 80°C for subs equent cytokine […]

NLRP1 inflammasome = experiment: IL-1β production in Nlrp3-/- mouse BMDMs after NLRP1 activation (LPS + L18-MDP); conditions: mBMDMs, concentrations up to 10 µM

Chain of NLRP3 inflammasome (Q96P20 whole entry): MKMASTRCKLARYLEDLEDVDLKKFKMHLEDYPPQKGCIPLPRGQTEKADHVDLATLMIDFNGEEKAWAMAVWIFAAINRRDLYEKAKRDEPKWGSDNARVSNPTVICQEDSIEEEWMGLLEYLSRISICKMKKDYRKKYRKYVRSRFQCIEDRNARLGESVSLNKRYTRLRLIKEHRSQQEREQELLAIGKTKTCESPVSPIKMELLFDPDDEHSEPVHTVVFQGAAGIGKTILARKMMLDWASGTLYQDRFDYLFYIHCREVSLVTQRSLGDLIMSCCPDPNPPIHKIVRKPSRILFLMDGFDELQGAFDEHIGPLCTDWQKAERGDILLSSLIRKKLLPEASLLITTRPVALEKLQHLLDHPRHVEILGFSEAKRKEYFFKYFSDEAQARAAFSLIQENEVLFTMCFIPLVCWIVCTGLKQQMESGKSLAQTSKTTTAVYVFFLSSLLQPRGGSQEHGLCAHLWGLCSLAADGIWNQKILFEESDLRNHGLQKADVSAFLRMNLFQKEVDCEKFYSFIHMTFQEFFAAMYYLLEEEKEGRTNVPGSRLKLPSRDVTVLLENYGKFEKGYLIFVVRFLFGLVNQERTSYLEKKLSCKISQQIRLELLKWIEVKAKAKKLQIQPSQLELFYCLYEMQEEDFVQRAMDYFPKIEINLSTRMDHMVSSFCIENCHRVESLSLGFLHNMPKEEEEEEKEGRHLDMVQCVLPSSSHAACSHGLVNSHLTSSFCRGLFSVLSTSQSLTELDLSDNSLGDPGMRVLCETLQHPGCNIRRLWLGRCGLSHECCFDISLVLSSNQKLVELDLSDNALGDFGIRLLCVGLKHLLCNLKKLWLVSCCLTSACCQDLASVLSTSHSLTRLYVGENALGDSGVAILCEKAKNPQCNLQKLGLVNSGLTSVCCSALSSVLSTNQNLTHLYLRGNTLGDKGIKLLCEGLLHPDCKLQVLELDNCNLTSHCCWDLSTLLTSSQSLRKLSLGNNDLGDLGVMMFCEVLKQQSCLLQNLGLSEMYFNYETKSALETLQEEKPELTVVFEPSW

- IC50 (NLRP3 inflammasome): 100 nM
- IC50 (TNFα production): > 10 µM
SMILES: CO[C@@H]1COc2c(S(=O)(=O)NC(=O)Nc3c4c(cc5c3CCC5)CCC4)cnn2C1 [JT002]
- inhibition of IL-1β production after NLRP1 activation (NLRP1 inflammasome): no inhibition of IL-1β production
